For data set [1], the system named is M. avium subsp. avium Chester ATCC15769. Nature of the data set: REMA MIC90, broad spectrum of microorganisms. The data set is classed as cell-based. As to conditions: Mycobacterium avium, M. avium subsp. avium Chester ATCC15769, Wild-type, read-out: MIC to Compound 2.
Data set [2] can be described thus: Pharmacokinetic study in mice. The data set is classed as in vivo, Balb/C male mice. The conditions noted are these: 100 mg/kg intragastric, saline solution. As to the method: The pharmacokinetics of the compound 2 has been studied white Balb/C male mice. 27 animals with average body weight of 20 g were selected for the study. The animals were kept on standard vivarium ration with dry pelleted feed before the experiment. All the test animals had free access to water but were deprived of food for 1 hour before administration of the compound. This regimen was continued for another hour after the administration.
Compound in a dose of 100 mg/kg of body weight was administered as 0.5 mL of saline solution by intragastric intubation.
The animals were euthanized by decapitation for blood and brain sampling. Blood and brain samples (3 animals per time point) were taken at 15, 30, 60, 120, 240, 360 1440 min after administration for pharmacokinetic evaluation. Blood was collected in heparinized tubes and centrifuged at 3500 RPM. Plasma was separated from formed elements and immediately frozen at −20° C. in freezer. This storage continued before transferring of plasma for analysis. Serum from 6 untreated animals was used as control and for equipment calibration with compound. Mice brain was immediately frozen at −120° C.

The subject of data set [3] is Pseudomonas aeruginosa PAO1. Nature of the data set: REMA MIC90, broad spectrum of microorganisms. It is filed as cell-based. As to conditions: Pseudomonas aeruginosa PAO1, in presence of efflux inhibitor, read-out: MIC to Compound 2.
The format of data set [4] is physicochemical. The conditions noted are these: at a temperature of 20±3° C., from accelerated aging at 55±2° C. How it is done:
The aim of the study is to investigate the physical and chemical properties of a substances at elevated temperature and to establish an experimental expiration date for the substances (saline form vs base form).
• 5-(ethoxycarbonyl)pyridine-2-thiolate 1-oxide (base form) • sodium 5-(ethoxycarbonyl)pyridine-2-thiolate 1-oxide (compound 2—salt form)
• Storage temperature: (55±2° C.)
Double layer polyethylene bag. The package is placed in a bag made of laminated aluminum foil. Each package is wrapped in wrapping paper. […]

In the next data set the test system is Candida albicans H8. Nature of the data set: Antifungal agar well diffusion assay. As to conditions: 20 μL water solution in 4 mm well.
A further data set has as its system Aspergillus niger. Nature of the data set: Antifungal agar well diffusion assay. As to conditions: 20 μL water solution in 4 mm well.
The test system of data set [5] is Mycobacterium abscessus ATCC 19977. The data set can be described thus: REMA MIC90 against M. abscessus ATCC 19977. The data set is classed as cell-based. The conditions noted are these: Mycobacteroides abscessus, ATCC19977. How it is done:
Briefly, serial 2-fold dilutions of drug are prepared in 96-well microtiter plates (Fluoronunc, Thermo Fisher, Waltham, MA, USA) in 100 μL of Middlebrook 7H9 medium (Difco), supplemented with 10% OADC without addition of Tween 80. Then, M. abscessus log-phase cultures were diluted (OD600=0.02) and added in the 96-well microtiter plate. Growth controls containing no compound and sterile controls without inoculum are also included. […] After 1 day of incubation at 37° C., 10 μL of resazurin (0.025% w/v) is added to each well, and bacterial viability is assessed after a further 24 h of incubation using a Fluoroskan™ Microplate Fluorometer (Thermo Fisher Scientific, Waltham, MA, USA; excitation=544 nm, emission=590 nm). […] Results are expressed as the average of at least three independent replicates and presented on the following Table 1.

The test system of a further data set is M. tuberculosis H37Rv. The data set can be described thus: REMA MIC90, broad spectrum of microorganisms. It is filed as cell-based. The conditions noted are these: Mycobacterium tuberculosis, Wild-type, read-out: MIC to Compound 2.
Data set [6] relates to Staphylococcus aureus ATCC 25923. Nature of the data set: REMA MIC90, broad spectrum of microorganisms. It is filed as cell-based. The conditions noted are these: ATCC25923, read-out: MIC to Compound 2.
In a further data set the test system is M. bolletii 1999-0888. Nature of the data set: REMA MIC90, broad spectrum of microorganisms. As to conditions: Mycobacteroides abscessus, 19990888, M. bolletii 1999-0888, Wild-type, read-out: MIC to Compound 2. It is filed as cell-based.

Read-outs that look alike come from different tables or passages of the source.

Experimental for Aspergillus niger: (§1) The well diffusion test was performed using Casitone agar. The inoculum used was prepared using the Candida or Aspergillus strains from a 24-hour culture on Sabouraud dextrose agar, a suspension was made in a sterile saline solution (0.85%). The turbidity of the suspension was adjusted with a spectrophotometer at 530 nm to obtain a final concentration to match that of a 0.5 McFarland standard (0.5-2.5×10^3). 20 mL of Bacto-casitone were melted, cooled to 55° C. and then inoculated with 1 mL of the organism suspension. The inoculated agar was poured into the assay plate (9 cm in diameter) and allowed to cool down on a leveled surface.
Experimental for Candida albicans H8: as §1

As to `CCOC(=O)c1ccc([S-])[n+]([O-])c1.[Na+]` [Compound 2, Sodium 5-(ethoxycarbonyl)pyridine-2-thiolate 1-oxide], the MIC in data set [1] was determined as 500 µg/mL; in data set [3], 1000 µg/mL; in [5] (MIC90, REMA, Table 1, read-out: MIC in M. abscessus ATCC 19977), 125 µg/mL; in data set [5] (MIC90, M. abscessus ATCC 19977, Wild-type, Table 2, read-out: MIC to Compound 2), 250 µg/mL; in the data set on M. tuberculosis H37Rv, 25 µg/mL; in [6], 8000 µg/mL. For the same compound, in the data set with M. bolletii 1999-0888, the minimum inhibitory concentration (MIC) is 500 µg/mL. In data set [2], the Bioavailability entry is on record as “high bioavailability”. Moreover, the Experimental shelf life entry in data set [4] was “about 2 years”. For the same compound, the “Inhibition Zone of Test Microorganism” value with Candida albicans H8 is reported as 53 mm; in the data set with Aspergillus niger, 28 mm.

These data come from patent US20260191845A1, “PYRIDINE-2-THIOL 1-OXIDE DERIVATIVES AND THEIR USE FOR TREATMENT OF MAMMALIAN INFECTIONS CAUSED BY MYCOBACTERIUM OR FUNGI” (priority 2022, published 2026).
